Experiments:
[1] = tested on: HBL100 cells (human mammary epithelium); assay: Cell adhesion test to immobilized peptides, HBL100; type: cell-based; settings: HBL100, 0 to 10 micrograms immobilized peptide, 8×10^4 cells per well, 1 hour 37° C., absorbance 570 nm
Description: (§1) Dose-dependent cell adhesion of cell line HBL100 to various peptides 1, 2 and 3. The peptides were immobilized in 96-well plates at the concentrations given on the abscissa. 8×10^4 cells were deposited in each well and plates were incubated at 37° C. for 1 hour. After washing, attached cells were fixed and cell adhesion was measured as described in the methodology section.
(§2) Peptides 1, 2 and 3 were used for the cell adhesion experiments. A range of 7 decreasing concentrations (100 micrograms/ml, 50 micrograms/ml, 25 micrograms/ml, 12.5 micrograms/ml, 6.25 micrograms/ml, 3.125 micrograms/ml and 1.562 micrograms/ml) was made up by successive dilution in PBS (Phosphate Buffer Saline, KH2PO4 1.54 mM; Na2HPO4 1.42 mM; NaCl-131 mM) using a starting solution at a concentration of 1 mg/ml. These solutions were immediately distributed onto a 96-well culture plate (Greinher, Dutscher, Brumath, France) at a rate of 100 μl per well. Plates were then placed at +4° C. for 16 to 18 hours. The solutions were then removed by turning the plates and each well was saturated with a 1% PBS-BSA solution (bovine serum albumin). Three additional wells without the substrate underwent the same treatment and were used as blanks.
(§3) Epithelial cells were detached from the culture dishes using a trypsin/EDAT solution (0.05-0.02%) then suspended in DMEM medium without additives for the cell lines and in KBM-2 without additive for human keratinocytes. The number of seeded cells per well is given in the graphs (50,000 to 100,000 cells per well).
(§4) After cell seeding, the multi-well plates were placed in an incubator at 37° C. under 5% CO2. After incubation for 30 to 60 minutes, cells were observed under a phase contrast microscope in order to verify that the test was conducted correctly. The adhesion medium was then removed and each well was washed in a sterile PBS solution to remove non-adhering cells. The remaining cells, attached to the substrate, were then fixed using a solution of 1% glutaraldehyde in PBS for 15 minutes. The glutaraldehyde solution as removed and the cells were stained with a crystal violet solution diluted to 1% in distilled water for 30 minutes.
(§5) After rinsing in water several times, cells were permeabilized by means of a 0.02% triton solution for 15 minutes in order to solubilize the crystal violet. Absorbances were read at 570 nm using an ELISA plate reader (MR500, Dynatech, Guernsey, Channel Islands). Each experimental point was carried out in triplicate. The blank value represented the mean absorbance of 3 control wells (BSA). This was subtracted from each of the optical density values for the experimental points. We then calculated the mean for the three absorbance values for each of the triplicate samples.
(§6) The results are presented in the form of a graph with the absorbance values on the ordinate and the various substrate concentrations on the abscissa. Attached cells were photographed by phase contrast microscopy.
(§7) The following cells from epithelial cell lines were used initially (commonly used in preliminary studies on cell adhesion): • line HT1080 cells (human fibrosarcoma), American Type Culture Collection CCL-121. • line HB100 cells (human mammary epithelium), American Type Culture Collection HTB-124. • line A431 cells (skin epitheliods), American Type Culture Collection CRL-1555.

[2] = tested on: HT1080 cells (human fibrosarcoma); assay: Cell adhesion test to immobilized peptides, HT1080; type: cell-based; settings: HT1080, 0 to 10 micrograms immobilized peptide, 8×10^4 cells per well, 1 hour 37° C., absorbance 570 nm
Description: as §1, with “HT1080” for “HBL100”
Dose-dependent cell adhesion of HT1080 cells to various peptide TALRIRATYGEY (SEQ ID NO. 1). The peptides were immobilized in 96-well plates in the quantities given on the abscissa. 8×10^4 cells and 15×10^4 cells were deposited in each well and plates were incubated at 37° C. for 1 hour. After washing, attached cells were fixed and cell adhesion was measured as described in the methodology section. Cells were observed by phase contrast microscopy then photographed. Bar =50 μm
as §2, §3, §4
as §5, with “This was subtracted from each of the optical density values for the experimental points.” left out
The results are presented in the form of a graph with the absorbance values on the ordinate and the various substrate concentrations on the abscissa. […]
A second approach was taken in order to determine the minimum quantity of active peptide and the number of adhering cells was increased in order to obtain a confluent cell network. […]

[3] = tested on: A431 cells (skin epitheloids); assay: Cell adhesion test to immobilized peptides, A431; type: cell-based; settings: A431, 0 to 10 micrograms immobilized peptide, 8×10^4 cells per well, 1 hour 37° C., absorbance 570 nm
Description: as §1, with “A431” for “HBL100”
as §2, §3, §4, §5, §6, §7

[4] = tested on: normal human keratinocytes; assay: Cell adhesion test to immobilized peptides, normal human keratinocytes; type: cell-based; settings: 0 to 10 micrograms immobilized peptide, 10^5 cells per well, 1 hour 37° C., absorbance 570 nm
Description: as §1, with “normal human keratinocytes” for “cell line HBL100”, “10^5” for “8×10^4”
as §2, §3, §4, §5, §6
Freshly isolated normal human keratinocytes were used in a second experiment. As the basal keratinocytes of the epidermis are in direct contact with LN-5 in the skin, it was necessary to test their adhesion capacity to the peptide in question. Human keratinocytes were obtained from a foreskin biopsy (surgery waste, Pavillon T-Bis, Eduard Herriot Hospital). […]

NHKs [5] = assay: Cell adhesion of NHKs to peptides co-immobilized with laminin 5; type: cell-based, human; settings: laminin 5 fixed quantity 0.2 mg, 50,000 cells per well, percentage of LN5 alone
Description: Peptides 1, 2 and 3 (variable quantities indicated) and laminin 5 (fixed quantity 0.2 mg) were co-immobilized in 96-well plates. 5×104 NHKs were deposited in each well and plates were incubated at 37° C. for 1 hour. After washing, attached cells were fixed and cell adhesion was measured as described in the methodology section. Cell adhesion in the presence of the peptide is given as a percentage of cell adhesion obtained with laminin 5 alone. Cells were observed by phase contrast microscopy then photographed. Bar=50 μm.
(§8) A decreasing range of LN5 (prepared in the laboratory) and COL4 (BD Biosciences, Le Pont de Claix, France) quantities was made up by successive dilution in PBS. These solutions were immediately distributed into a 96-well culture plate (Costar) at a rate of 100 μl per well. The experiment was conducted in exactly the same way as the experiment described in example 2. The results are given in the form of a graph with the absorbance values representing adhesion on the ordinate and the various substrate concentrations on the abscissa. Attached cells were photographed by phase contrast microscopy.
In order to analyse the effect of the peptide on cell adhesion to DEJ proteins, peptide TALRIRATYGEY (SEQ ID NO.1) (peptide 1) was co-immobilized with LN5 (FIG. 14) and COL4 (FIG. 15). The fixed quantity of matrix protein (LN5 and COL4) and the variable quantity of peptide are given on the graph (FIGS. 14 and 15). Peptides 2 and 3 (described in example 1) were used as controls for the experiment. The adhesion tests were carried out with NHK under the same conditions as the experiment given in FIG. 13 (50,000 cells per well). A peptide-free control representing 100% adhesion (LN5 only and COL4 only) was used to allow analysis of the effect of adhesion relating to the presence of the peptide. The results are given as a percentage of this control.

NHKs [6] = assay: Cell adhesion of NHKs to laminin 5 and collagen IV substrates; type: cell-based, human; settings: 0 to 2 micrograms per well, 5×10^4 NHKs per well, 1 hour 37° C.
Description: (A) Diagrammatic representation of laminin 5 and collagen IV in the dermo-epidermal junction (DEJ). (B) Dose-dependent cell adhesion of NHKS to laminin 5 and collagen IV. laminin 5 and collagen IV were fixed to 96-well plates in the quantities given on the abscissa. 5×10^4 NHKs were deposited in each well and plates were incubated at 37° C. for 1 hour. After washing, attached cells were fixed and cell adhesion was measured as described in the methodology section.
as §8

| Substance | cell adhesion to immobilized peptide [1] | cell adhesion to immobilized peptide [2] | cell adhesion to immobilized peptide [3] | cell adhesion to immobilized peptide [4] | effect on adhesion of NHKs to LN5 (co-immobilized) (NHKs [5]) | adhesion of NHKs to substrate protein (NHKs [6]) |
| --- | --- | --- | --- | --- | --- | --- |
| GLTKTYTFRLNE (Human laminin 5) [Peptide 2, control peptide from the gamma 2 chain of laminin 5, position 309-321, reference compound] | did not lead to any adhesion | did not lead to any adhesion | did not lead to any adhesion | did not lead to any adhesion | do not modify adhesion | – |
| LN5: laminin 5, dermo-epidermal junction glycoprotein, prepared in the laboratory, used as adhesion substrate | – | – | – | – | – | much better substrate |
| DVKNLENIRDNL (Human laminin 5) [Peptide 3, control peptide from the terminal carboxy end of the gamma 2 chain of laminin 5, position 1169-1180, reference compound] | did not lead to any adhesion | did not lead to any adhesion | did not lead to any adhesion | did not lead to any adhesion | do not modify adhesion | – |

Reference: patent US7645740B2, “Peptide sequence found in Laminin 5 for treating skin impairments” (Laboratoires d'Anjou Centre National de la Recherche …, priority 2004, dated 2010)
